Data on eight compounds can be found in patent US12018027B2, “Macrocyclic derivatives acting as XIa factor inhibitor” (CHINA RESOURCES BIOPHARMACEUTICAL COMPANY LIMITED, priority 2019, dated 2024).

One data set concerns the target Human Factor XIa (Homo sapiens (Human), UniProt P03951). As to the kind of experiment: Screening assay for inhibitory activity against enzyme hFXIa (human factor XIa). The format is biochemical. The following applies: substrate S-2366, pH 7.4, 37° C., absorbance 405 nm. As for the experimental part:
1. Screening Assay for Inhibitory Activity against Enzyme hFXIa (Human Factor XIa)
To Test the Inhibitory Activity of the Compounds Disclosed herein Against Human Factor XIa
100 mM Tris-HCl (Sigma, Cat. No.: T2663, Lot No.: SLBG2775)
Enzyme: Human Factor XIa (Abcam, Cat No.: ab62411), total amount of 50 μg; dissolved in assay buffer and packaged.
3) Instruments and consumables
SpectraMax 340PC multifunctional microplate reader (Molecular Devices)
384-well black transparent reaction plate (Corning, Cat. No.: 3712)
Echo liquid workstation (Labcyte)
A 384-well polypropylene compound plate (Labcyte-P-05525) was used in Echo
A 384 shallow-well polypropylene compound plate (Labcyte-LP-0200, 2.5-12 μL) was used in Echo
Mutidrop automatic dispenser (Thermo Scientific)
Mutidrop consumables (Thermo Scientific-24073290)
Test compounds were each dissolved in DMSO to prepare a 10 mM solution and stored in a nitrogen cabinet.
1) Preparation for compounds
All test compounds were prepared using Echo, subjected to gradient dilution and transferred to a 384-well reaction plate at 100 nL. The reference compound and the test samples, with an initial concentration of 200 μM, were subjected to 3-fold dilution to get 10 concentrations (the final concentration was 1 μM). To high signal wells were added DMSO, and to low signal wells were added 100 μM reference compound. Reference can be made to the sample distribution for distributions of samples and control.
1) Preparation for enzyme human factor XIa
Enzyme human factor XIa was diluted to 0.5 μg/mL with assay buffer.
3) Preparation for substrate S-2306
S-2306 was prepared at a concentration of 1 mM using the assay buffer.
4) 10 μL of 0.5 μg/mL enzyme human factor XIa was added to the reaction plate using a Mutidrop automatic dispenser and the final concentration was 5 ng/well.
5) 10 μL of 1 mM S-2306 was added to the reaction plate using a Mutidrop automatic dispenser and the final concentration was 0.5 mM.
6) Centrifugation was performed at 1000 rpm for 10 s.
7) The reaction plate was incubated in SpectraMax 340PC at 37° C. for 10 min and the absorbance was measured at 405 nm.
8) Data were analyzed using GraphPad Prism 5.0.
% inhibition rate=100%×[1—(sample reading—mean of low signal wells)/(mean of high signal wells—mean of low signal wells)]
IC50 was analyzed using […]:
Y=Bottom+(Top−Bottom)/(1+10^((LogIC50−X)*Hill Slope))
Y is % inhibition rate and X is the logarithm of the sample concentration.

A further data set relates to human plasma. As to the kind of experiment: Human plasma in vitro aPTT (activated partial thromboplastin time). Format: biochemical. The procedure:
2. Testing of Human Plasma in vitro aPTT (Activated Partial Thromboplastin Time)
To test the anticoagulant effect of the compounds disclosed herein against human plasma in vitro
1) Plasma: fresh human venous blood was mixed well with 0.109 M sodium citrate at a ratio of 9:1, and then the mixture was centrifuged at 3000 rpm for 15 min. The upper plasma was collected and tested within 2-5 h.
2) Reagents: aPTT reagent (activated partial thromboplastin time kit, mindray), PT reagent (prothrombin time kit, mindray), and calcium chloride solution.
3) Instruments: coagulometer (Beijing Precil, C2000-4).
Test compounds were each dissolved in DMSO to prepare a 10 mM stock solution. The plasma was serially diluted to 400 μM, 200 μM, 100 μM, 50 μM, 25 μM, 12.5 μM, 6.25 μM, 3.125 μM, 1.563 μM, 0.781 μM, 0.390 μM and 0.195 μM with the 10 mM stock solution of each compound, and the blank control was 100% DMSO. The reagents, plasma and compounds were placed at corresponding positions in a coagulometer to detect the aPTT and PT of the compounds.
The concentrations of compounds corresponding to aPTT2× and PT2× (i.e., aPTT and PT of 2-fold blank control) were calculated by Prism curve fitting and the results are shown in Table 2 below: […]

A further data set is described as follows: Pharmacokinetics in rats. Format: in vivo. Conditions: male SD rats. As for the experimental part: 3. Pharmacokinetics in Rats
To determine the pharmacokinetic parameters of the compounds disclosed herein in rats
1) Experimental drug: compound 1-2;
2) Experimental animals: 4 male SD rats aged 7-9 weeks, randomly divided into 2 groups, 2 rats for each group;
3) Drug preparation: a proper amount of the drug was weighed out and dissolved in a mixed solvent of DMAC:solutol:water=10:10:80 to prepare two solutions of 0.2 mg/mL and 0.5 mg/mL, respectively;
Animals in group 1 were administered with the 0.2 mg/mL drug at a dose of 0.5 mg/kg by single injection via the tail vein, and animals in group 2 were administered with the 0.5 mg/mL compound at a dose of 3 mg/kg by gavage. Animal plasma samples were collected 0.0833 (only the tail vein injection group), 0.25, 0.5, 1, 2, 4, 6, 8 and 24 h after administration. The drug concentration in plasma samples was determined using LC-MS/MS method, and the kinetic parameters of the test drug are shown in Table 3: […]

pIC50: −log10 of the molar value.

Chain of Human Factor XIa (P03951 388-625): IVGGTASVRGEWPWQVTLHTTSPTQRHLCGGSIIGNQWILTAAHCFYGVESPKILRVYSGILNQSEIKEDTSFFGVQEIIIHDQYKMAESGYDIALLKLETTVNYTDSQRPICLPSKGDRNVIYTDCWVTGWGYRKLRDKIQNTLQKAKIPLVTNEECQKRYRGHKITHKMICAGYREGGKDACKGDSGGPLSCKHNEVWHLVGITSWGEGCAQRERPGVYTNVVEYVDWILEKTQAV
Chain of Human Factor XIa (P03951 19-387 partner): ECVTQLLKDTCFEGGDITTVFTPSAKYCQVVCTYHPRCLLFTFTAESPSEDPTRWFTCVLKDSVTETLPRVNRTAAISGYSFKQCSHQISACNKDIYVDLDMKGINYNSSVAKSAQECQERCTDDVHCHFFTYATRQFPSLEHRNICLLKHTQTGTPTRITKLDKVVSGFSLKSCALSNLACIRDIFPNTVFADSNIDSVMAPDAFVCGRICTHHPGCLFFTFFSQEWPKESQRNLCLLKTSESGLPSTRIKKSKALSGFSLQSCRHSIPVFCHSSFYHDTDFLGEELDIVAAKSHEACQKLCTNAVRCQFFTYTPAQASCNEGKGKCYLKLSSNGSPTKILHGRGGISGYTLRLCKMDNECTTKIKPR

As to `C[C@@H]1CCC[C@@H](c2ccc(-c3cc(Cl)ccc3-n3cc(Cl)nn3)oc2=O)c2cc(ccn2)-c2c(cnn2C(F)F)NC1=O` (single isomer, unassigned) [Compound 1-2], the pIC50 (usually the IC50 on a negative log10 scale, so that one unit is a factor of ten) on Human Factor XIa is 8.41. In addition, the “aPTT2× (concentration giving aPTT of 2-fold blank control)” value in the data set on human plasma is 0.87 µM. The “Bioavailability F” value in the data set “Pharmacokinetics in rats” (gavage 3 mg/kg vs tail vein injection 0.5 mg/kg) is reported as 37.1%. Further, in the data set “Pharmacokinetics in rats” (gavage, 3 mg/kg), the “Area under curve AUC” value is 5.205 µM·h and the “Time of peak concentration T1/2” value worked out at 3 h. Also, the Cmax in the data set “Pharmacokinetics in rats” (gavage, 3 mg/kg, read-out: Peak concentration Cmax) worked out at 986 nM. In addition, in “Pharmacokinetics in rats” (tail vein injection, 0.5 mg/kg), the “Area under curve AUC” value was found to be 2.339 µM·h, the “Clearance Cl” value was 5.65 mL/kg/min, the “Half life T1/2” value was 1.04 h and the “Volume of distribution Vd” value is 0.533 L/kg. In the data set “Pharmacokinetics in rats” (tail vein injection, 0.5 mg/kg, read-out: Initial concentration C0), the C0 is 1800 nM.

The compound `C[C@H]1CCC[C@@H](c2ccc(-c3cc(Cl)ccc3-n3cc(Cl)nn3)oc2=O)c2cc(ccn2)-c2c(cnn2C(F)F)NC1=O` (single isomer, unassigned) [Compound 1-4] had a pIC50 against Human Factor XIa of 7.47.

At Human Factor XIa, `C[C@@H]1CCC[C@@H](c2ccc(-c3cc(Cl)ccc3-n3cc(C(F)F)nn3)oc2=O)c2cc(ccn2)-c2c(cnn2C(F)F)NC1=O` (single isomer, unassigned) [Compound 3-1] showed a pIC50 of 8.42. Moreover, in the data set with human plasma, the “aPTT2× (concentration giving aPTT of 2-fold blank control)” value was determined as 1.37 µM.

In the case of `C[C@@H]1CCC[C@@H](c2ccc(-c3cc(Cl)ccc3-n3cc(C4CC4)nn3)oc2=O)c2cc(ccn2)-c2c(cnn2C(F)F)NC1=O` (single isomer, unassigned) [Compound 4-1], at Human Factor XIa, the pIC50 was 7.66.

The compound `C[C@@H]1CCC[C@@H](c2ccc(-c3cc(Cl)ccc3-n3cc(Cl)nn3)n(C)c2=O)c2cc(ccn2)-c2c(cnn2C(F)F)NC1=O` (single isomer, unassigned) [Compound 5-1] gave a pIC50 against Human Factor XIa of 8.09. Compared with the last compound, the pIC50 is 0.43 log units higher.

At Human Factor XIa, `CCOc1cn(-c2ccc(Cl)cc2-c2ccc([C@@H]3CCC[C@@H](C)C(=O)Nc4cnn(C(F)F)c4-c4ccnc3c4)c(=O)o2)nn1` (single isomer, unassigned) [Compound 6-2] showed a pIC50 of 7.69. Against the preceding compound, the pIC50 is 0.40 log units lower.

Consider `C[C@@H]1CCC[C@@H](c2ccc(-c3cc(Cl)ccc3-n3ccnn3)oc2=O)c2cc(ccn2)-c2c(cnn2C(F)F)NC1=O` [Compound 2-1], for which the pIC50 at Human Factor XIa was 8.47. For the same compound, the “aPTT2× (concentration giving aPTT of 2-fold blank control)” value in the data set on human plasma stood at 0.65 µM.

Take `C[C@@H]1CCC[C@H](c2ccc(-c3cc(Cl)ccc3-n3ccnn3)oc2=O)c2cc(ccn2)-c2c(cnn2C(F)F)NC1=O` [Compound 2-2]: on Human Factor XIa, the pIC50 is 7.97.
